Test results from US20180280435A1, “T CELL DELIVERY OF MDA-7/IL-24 TO IMPROVE THERAPEUTIC ERADICATION OF CANCER AND GENERATE PROTECTIVE ANTITUMOR IMMUNITY” (VIRGINIA COMMONWEALTH UNIVERSITY, priority 2015, published 2018).

Key:
CD11b+Gr-1+MDSCs = experiment: MDSC frequency after MCL-1 inhibitor in tumor-bearing mice (FACS); assay type: in vivo
Description: FIG. 6. Potential immune modulation by MCL-1 inhibition. MCL-1 inhibitor reduces MDSCs in tumor-bearing mice. Tumor-bearing mice received BI-97C1 (Sabutoclax) (5 mg/kg or 20 mg/kg) i.p. or left untreated. 24 h later, splenic CD11b+GR-1+MDSCs were assessed by FACS.
Reduction of MDSCs could be explained by the direct cytotoxic effect of BI-97C1 (Sabutoclax), due to its ability to abrogate Bcl-2 protein functions.

[1] = tested on: IFN-γ-producing CD8+ T cells; experiment: IFN-γ-producing CD8+ T cells in lymph nodes after i.v. protein (intracellular staining); assay type: in vivo, C57BL/6 mice; settings: 10 μg i.v., 48 h later, lymph node cells
Description: (§1) A. CD8+ T cells were stimulated with anti-CD3/CD28 antibodies in the presence or absence of purified MDA-7/IL-24 protein (20 ng/ml). Cell proliferation was measured using 3H-thymidine (TdR) incorporation assays. P<0.05. B. C57BL/6 mice were injected i.v. with MDA-7/IL-24 protein (10 μg) or PBS. 48 h later, lymph node cells were assessed for IFN-γ-producing CD8+ T cells by intracellular staining.
(§2) The clinical application of immunotherapy is limited by the escape mechanisms cancer cells employ to avoid immune destruction due to immunoediting (e.g., selection of non-immunogenic or antigen loss cancer cell variants) and other immunosuppressive mechanisms at the tumor site. Since cancer-specific toxicity of MDA-7/IL-24 is antigen-independent, the delivery of a cancer-suicide agent in combination with T-cells may overcome the acquired tumor resistance to T-cell therapy. Intriguingly, MDA-7/IL-24 protein enhanced the proliferation of T cells upon TCR ligation (FIG. 8A). Treatment of mice with recombinant MDA-7/IL-24 protein increased the frequency of IFN-γ-expressing CD8+ T cells (FIG. 8B), supporting a role of MDA-7/IL-24 as a pro-Th 1 cytokine.

CD8+ T cells = experiment: T cell proliferation, 3H-thymidine (TdR) incorporation after anti-CD3/CD28 stimulation; assay type: cell-based; settings: 20 ng/ml protein
Description: as §1, §2

Molecule | frequency of CD11b+Gr-1+MDSCs (CD11b+Gr-1+MDSCs; single administration i.p. (5 mg/kg or 20 mg/kg), splenic MDSCs 24 h later) | toxicity (CD11b+Gr-1+MDSCs; single administration in tumor-bearing mice) | frequency of IFN-γ-expressing CD8+ T cells [1] | proliferation of T cells upon TCR ligation (CD8+ T cells)
Cc1cc2c(C(=O)NC[C@H](C)c3ccccc3)c(O)c(O)cc2c(O)c1-c1c(C)cc2c(C(=O)NC[C@H](C)c3ccccc3)c(O)c(O)cc2c1O [BI-97C1, Sabutoclax] | substantially reduced | without inducing toxicity | – | –
MDA-7/IL-24 protein: Melanoma differentiation associated gene-7/Interleukin-24, secreted protein of the IL-10 family (protein) QEFHFGPCQVKGVVPQKLWEAFWAVKDTMQAQDNITSARLLQQEVLQNVSDAESCYLVHTLLEFYLKTVFKNYHNRTVEVRTLKSFSTLANNFVLIVSQLQPSQENEMFSIRDSAHRRFLLFRRAFKQLDVEAALTKALGEVDILLTWMQKFYKL | – | – | increased | enhanced
